Assay results taken from patent publication US20140081025A1, “HETEROAROMATIC RING DERIVATIVE” (TAISHO PHARMACEUTICAL CO., LTD., priority 2011, published 2014).

Assays:
[1] = target: T1, human orexin 1 receptor (hOX1R) (Homo sapiens, UniProt O43613); assay: Measurement of orexin antagonist activity (intracellular Ca2+ fluorescence, FDSS) in CHO cells expressing hOX1R; format: cell-based; details: CHO cells forcibly expressing hOX1R; ligand (two-amino-acid-substituted human orexin-A) 300 pM; Fluo 4-AM; read-out: IC50 value OX1
T1 construct: expressed in transfected cells; host or cells: Chinese hamster ovary (CHO) cells
T1 sequence (O43613 1-425): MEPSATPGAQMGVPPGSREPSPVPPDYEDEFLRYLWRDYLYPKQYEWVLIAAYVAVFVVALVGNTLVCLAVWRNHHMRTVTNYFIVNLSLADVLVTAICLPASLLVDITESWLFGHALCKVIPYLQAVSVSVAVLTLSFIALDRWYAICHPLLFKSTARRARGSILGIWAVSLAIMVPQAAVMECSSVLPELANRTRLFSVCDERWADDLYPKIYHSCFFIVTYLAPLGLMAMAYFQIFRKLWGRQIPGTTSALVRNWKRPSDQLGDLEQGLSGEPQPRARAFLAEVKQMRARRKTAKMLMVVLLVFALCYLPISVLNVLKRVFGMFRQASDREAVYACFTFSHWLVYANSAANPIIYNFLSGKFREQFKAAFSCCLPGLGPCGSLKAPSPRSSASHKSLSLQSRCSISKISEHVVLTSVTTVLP
Protocol: (§1) The antagonist activity of a test compound against the human orexin 1 receptor (hOX1R) or orexin 2 receptor (hOX2R) was measured by the method described in the document (Toshikatsu Okumura et al., Biochemical and Biophysical Research Communications, 280, 976-981, 2001) with appropriate modification. Chinese hamster ovary (CHO) cells forcibly expressing hOX1R or hOX2R were seeded into each well of a 96-well Black clear bottom plate (Nunc A/S) in the amount of 20000 cells per well and were cultured in a Ham's F-12 medium (Invitrogen, Inc.) containing 0.1 mM MEM non-essential amino acids (Invitrogen, Inc.), 0.5 mg/mL G418 (Invitrogen, Inc.), and 10% fetal calf serum (Invitrogen, Inc.) at 37° C. in 5% CO2 for 16 hours. The medium was removed, and then added to each well was 100 μL of an assay buffer (pH 7.4) containing 0.5 μM Fluo 4-AM ester (Dojindo Laboratories), wherein the buffer was composed of 25 mM HEPES (Dojindo Laboratories), a Hanks' balanced salt solution (Invitrogen, Inc.), 0.1% bovine serum albumin (Sigma-Aldrich Co., LLC.), 2.5 mM probenecid (Sigma-Aldrich Co., LLC.), and 200 μg/mL Amaranth (Sigma-Aldrich Co., LLC.), followed by incubation at 37° C. in 5% CO2 for 60 min. The assay buffer containing Fluo 4-AM ester was removed, and then 150 μL of an assay buffer solution containing 10 mM of the test compound dissolved in dimethyl sulfoxide was added to each well, followed by incubation for 30 min.
(§2) A peptide (Pyr-[…]NH2: Peptide Institute, Inc.), which is a ligand having substitution of two amino acids in human orexin-A, was diluted with an assay buffer to a final concentration of 300 pM for hOX1R and to a final concentration of 3 nM for hOX2R. The reaction was started by adding 50 μL of this ligand solution to each well. The reaction was monitored by measuring the fluorescence of each well at each 1 second for 3 min with a Functional Drug Screening System (FDSS manufactured by Hamamatsu Photonics K.K.), and the antagonist activity was determined based on the maximum fluorescence value as an index of the intracellular Ca^2+ concentration. The antagonist activity of a test compound was calculated by assuming that the fluorescence value of the well containing only a dilution buffer was 100% and that the fluorescence value of the well containing a buffer not containing the ligand or any test compound was 0%. The 50% inhibitory concentration (IC50 value) of a test compound was determined from fluorescence values at various concentrations of the test compound.

[2] = target: T2, human orexin 2 receptor (hOX2R) (Homo sapiens, UniProt O43614); assay: Measurement of orexin antagonist activity (intracellular Ca2+ fluorescence, FDSS) in CHO cells expressing hOX2R; format: cell-based; details: CHO cells forcibly expressing hOX2R; ligand (two-amino-acid-substituted human orexin-A) 3 nM; Fluo 4-AM; read-out: IC50 value OX2
T2 construct: expressed in transfected cells; host or cells: Chinese hamster ovary (CHO) cells
T2 sequence (O43614 1-444): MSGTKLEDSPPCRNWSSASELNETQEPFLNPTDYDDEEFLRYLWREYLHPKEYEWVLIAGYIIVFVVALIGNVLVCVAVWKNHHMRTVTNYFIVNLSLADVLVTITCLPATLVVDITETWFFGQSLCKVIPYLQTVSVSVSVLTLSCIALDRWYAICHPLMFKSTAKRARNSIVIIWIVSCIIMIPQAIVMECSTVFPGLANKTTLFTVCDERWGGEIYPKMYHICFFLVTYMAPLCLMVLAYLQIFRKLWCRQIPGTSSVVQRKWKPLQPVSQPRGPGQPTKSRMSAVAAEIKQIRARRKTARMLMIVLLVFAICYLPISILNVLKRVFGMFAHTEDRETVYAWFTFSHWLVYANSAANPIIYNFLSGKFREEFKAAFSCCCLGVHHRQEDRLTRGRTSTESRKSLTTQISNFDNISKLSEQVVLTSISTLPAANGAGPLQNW
Protocol: as §1, §2

CCN(CCc1noc(-c2ccc(F)cc2)n1)C(=O)c1cc(C)ccc1-n1nccn1 [Example 38, N-Ethyl-N-{2-[5-(4-fluorophenyl)-1,2,4-oxadiazol-3-yl]ethyl}-5-methyl-2-(2H-1,2,3-triazol-2-yl)benzamide]
IC50 [1]: 1.2 nM
IC50 [2]: 6.1 nM

CCN(CCc1ccn(-c2ccc(F)cc2)n1)C(=O)c1ccccc1-c1ncccn1 [Example 30, N-ethyl-N-{2-[1-(4-fluorophenyl)-1H-pyrazol-3-yl]ethyl}-2-(pyrimidine-2-yl)benzamide]
IC50 [1]: 1.9 nM
IC50 [2]: 13.2 nM

CCN(CCc1noc(-c2ccc(F)cc2)n1)C(=O)c1cc(C)ccc1-c1ncccn1 [Example 39, N-ethyl-N-{2-[5-(4-fluorophenyl)-1,2,4-oxadiazol-3-yl]ethyl}-5-methyl-2-(pyrimidin-2-yl)benzamide]
IC50 [1]: 0.7 nM
IC50 [2]: 17.3 nM

Cc1ccc(-n2nccn2)c(C(=O)N(C)CCc2noc(-c3ccc(F)c(F)c3)n2)c1 [Example 36]
IC50 [1]: 1.9 nM
IC50 [2]: 5.9 nM

CN(CCc1ccn(-c2ccc(F)cn2)n1)C(=O)c1cc(F)ccc1-n1nccn1 [Example 15, 5-Fluoro-N-{2-[1-(5-fluoropyridin-2-yl)-1H-pyrazol-3-yl]ethyl}-N-methyl-2-(2H-1,2,3-triazol-2-yl)benzamide]
IC50 [1]: 14.6 nM
IC50 [2]: 191 nM

CCN(CCc1ccn(-c2ccc(F)c(F)c2)n1)C(=O)c1ccccc1-n1nccn1 [Example 25, N-{2-[1-(3,4-difluorophenyl)-1H-pyrazol-3-yl]ethyl}-N-ethyl-2-(2H-1,2,3-triazol-2-yl) benzamide]
IC50 [1]: 1.6 nM
IC50 [2]: 3.3 nM

CCN(CCc1noc(-c2ccc(F)c(F)c2)n1)C(=O)c1ccccc1-n1nccn1 [Example 42, N-ethyl-N-{2-[5-(3,4-difluorophenyl)-1,2,4-oxadiazol-3-yl]ethyl}-2-(2H-1,2,3-triazol-2-yl) benzamide]
IC50 [1]: 9.7 nM
IC50 [2]: 10.8 nM

CN(CCc1noc(-c2ccc(F)c(F)c2)n1)C(=O)c1ccccc1-n1nccn1 [Example 32, N-{2-[5-(3,4-difluorophenyl)-1,2,4-oxadiazol-3-yl]ethyl}-N-methyl-2-(2H-1,2,3-triazol-2-yl) benzamide]
IC50 [1]: 14.8 nM
IC50 [2]: 133 nM

CCN(CCc1ccn(-c2ccc(F)cn2)n1)C(=O)c1cc(F)ccc1-n1nccn1 [Example 7, N-Ethyl-N-{2-[1-(5-fluoropyridin-2-yl)-1H-pyrazol-3-yl]ethyl}-5-fluoro-2-(2H-1,2,3-triazol-2-yl)benzamide]
IC50 [1]: 11 nM
IC50 [2]: 24.9 nM

CCN(CCc1cc(-c2ccc(F)cn2)on1)C(=O)c1cc(C)ccc1-n1nccn1 [Example 10, N-Ethyl-N-{2-[5-(5-fluoropyridin-2-yl)-1,2-oxazol-3-yl]ethyl}-5-methyl-2-(2H-1,2,3-triazol-2-yl)benzamide]
IC50 [1]: 1.8 nM
IC50 [2]: 21.3 nM

CCN(CCc1cnn(-c2ccc(F)cn2)c1)C(=O)c1cc(C)ccc1-n1nccn1 [Example 1, N-Ethyl-N-{2-[1-(5-fluoropyridin-2-yl)-1H-pyrazol-4-yl]ethyl}-5-methyl-2-(2H-1,2,3-triazol-2-yl)benzamide]
IC50 [1]: 1.8 nM
IC50 [2]: 5.2 nM

CCN(CCc1noc(-c2ccc(F)cn2)n1)C(=O)c1cc(C)ccc1-n1nccn1 [Example 12, N-Ethyl-N-{2-[5-(5-fluoropyridin-2-yl)-1,2,4-oxadiazol-3-yl]ethyl}-5-methyl-2-(2H-1,2,3-triazol-2-yl)benzamide]
IC50 [1]: 1.9 nM
IC50 [2]: 11.6 nM

CCN(CCc1ccn(-c2ccc(F)c(F)c2)n1)C(=O)c1cc(F)ccc1-c1ncccn1 [Example 29, N-{2-[1-(3,4-difluorophenyl)-1H-pyrazol-3-yl]ethyl}-N-ethyl-5-fluoro-2-(pyrimidin-2-yl) benzamide]
IC50 [1]: 1.3 nM
IC50 [2]: 11.2 nM

CCN(CCc1noc(-c2ccc(F)cn2)n1)C(=O)c1cc(C)ccc1-c1ncccn1 [Example 45, N-ethyl-N-{2-[5-(5-fluoropyridin-2-yl)-1,2,4-oxadiazol-3-yl]ethyl}-5-methyl-2-(pyrimidin-2-yl)benzamide]
IC50 [1]: 163 nM
IC50 [2]: 159 nM

CCN(CCc1noc(-c2ccc(F)cc2)n1)C(=O)c1cc(F)ccc1-c1ncccn1 [Example 40, N-ethyl-5-fluoro-N-{2-[5-(4-fluorophenyl)-1,2,4-oxadiazol-3-yl]ethyl}-2-(pyrimidin-2-yl) benzamide]
IC50 [1]: 1.7 nM
IC50 [2]: 78 nM

CCN(CCc1ccn(-c2ccc(F)cn2)n1)C(=O)c1c(F)cccc1-c1ncccn1 [Example 21, N-ethyl-2-fluoro-N-{2-[1-(5-fluoropyridin-2-yl)-1H-pyrazol-3-yl]ethyl}-6-(pyrimidin-2-yl) benzamide]
IC50 [1]: 11.6 nM
IC50 [2]: 50.8 nM

CCN(CCc1noc(-c2ccc(F)cc2)n1)C(=O)c1ccccc1-n1nccn1 [Example 41, N-ethyl-N-{2-[5-(4-fluorophenyl)-1,2,4-oxadiazol-3-yl]ethyl}-2-(2H-1,2,3-triazol-2-yl) benzamide]
IC50 [1]: 1.6 nM
IC50 [2]: 31.6 nM

Cc1ccc(-n2nccn2)c(C(=O)N(C)CCc2ccn(-c3ccc(F)cn3)n2)c1 [Example 5, N-{2-[1-(5-Fluoropyridin-2-yl)-1H-pyrazol-3-yl]ethyl}-N,5-dimethyl-2-(2H-1,2,3-triazol-2-yl)benzamide]
IC50 [1]: 2.1 nM
IC50 [2]: 8 nM

CCN(CCc1cnn(-c2ccc(F)cn2)c1)C(=O)c1ccccc1-n1nccn1 [Example 3, N-Ethyl-N-{2-[1-(5-fluoropyridin-2-yl)-1H-pyrazol-4-yl]ethyl}-2-(2H-1,2,3-triazol-2-yl)benzamide]
IC50 [1]: 4.2 nM
IC50 [2]: 60.6 nM

Cc1ccc(-n2nccn2)c(C(=O)N(C)CCc2noc(-c3ccc(F)cn3)n2)c1 [Example 34, N-{2-[5-(5-fluoropyridin-2-yl)-1,2,4-oxadiazol-3-yl]ethyl}-N,5-dimethyl-2-(2H-1,2,3-triazol-2-yl)benzamide]
IC50 [1]: 83.4 nM
IC50 [2]: 119 nM

CCN(CCc1ccn(-c2ccc(F)cc2)n1)C(=O)c1ccccc1-n1nccn1 [Example 22, N-Ethyl-N-{2-[1-(4-fluorophenyl)-1H-pyrazol-3-yl]ethyl}-2-(2H-1,2,3-triazol-2-yl)benzamide]
IC50 [1]: 2.2 nM
IC50 [2]: 10.6 nM

CCN(CCc1noc(-c2ccc(F)cn2)n1)C(=O)c1cc(F)ccc1-c1ncccn1 [Example 46, N-ethyl-5-fluoro-N-{2-[5-(5-fluoropyridin-2-yl)-1,2,4-oxadiazol-3-yl]ethyl}-2-(pyrimidin-2-yl) benzamide]
IC50 [1]: 974 nM
IC50 [2]: 1230 nM

CCN(CCc1ccn(-c2ccc(F)cn2)n1)C(=O)c1cc(C)ccc1-c1ncccn1 [Example 6, N-Ethyl-N-{2-[1-(5-fluoropyridin-2-yl)-1H-pyrazol-3-yl]ethyl}-5-methyl-2-(pyrimidin-2-yl)benzamide]
IC50 [1]: 7.1 nM
IC50 [2]: 13.7 nM
